Results reported in patent US9351952B2, “Use of hesperetin” (NATURAL MEDICINE INSTITUTE OF ZHEJIANG YANGSHENGTANG CO., …, priority 2010, dated 2016).

Tested on: skin microcirculation in domestic rabbits
Experiment: Effect of topical application of hesperetin on skin microcirculation by Laser Doppler Flowmetery
Format: in vivo, Oryctolagus cuniculus
Details: smearing the backs of rabbits with samples of different concentrations
Source text: The experimental method for promoting microcirculation: Male Oryctolagus cuniculus weighted 3.0-3.5 kg were used. After shaving the hair on the back of the Oryctolagus cuniculus, 10 points for testing blood flow were marked with a marker pen on the hairless skin of the rabbit, i.e. 5 points for each of the right side and the left side, and aorta was avoided when drawing the points. Before smearing the sample, the basic values of blood flow at the 10 points of rabbits of each experimental group were determined by Laser Doppler Flowmetery. […] 2% solution was orally administrated by a similar method in a volume 100 times compared to the volume used in the group wherein the 2% solution was administered by smearing. After administration, the blood flow value was determined every hour at the same point by Laser Doppler Flowmetery for 24 h, and the variation index of blood flow was calculated to evaluate the effect of hesperetin on the back blood of rabbits, wherein a higher variation index of blood flow indicates a better effect of promoting microcirculation. The experimental results were statistically analyzed by SPSS11.5 software, t-test was applied to the measured data to evaluate the experimental results. When P<0.1, the data may be regarded as statistically significant. In the results of Table 1, all the time points at with P<0.1 in the 24-h test were listed.

COc1ccc([C@@H]2CC(=O)c3c(O)cc(O)cc3O2)cc1O [Hesperetin]
blood flow in skin microvessels as compared to the blank side: significantly enhanced
